Results from the supplement of paper PMC4862054.

How the values were obtained:
Settings in all cases: incubation time: 72 h
MDA-MB-453 [1] = assay: drug sensitivity score (DSS), CellTiter-Blue viability (DSS (AUC-based score)); higher = stronger viability inhibition; extreme values may be limits of the assay
Method in brief: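 Drug sensitivity scores correspond to the area under the fitted dose-response curve. Breast cancer cell lines were incubated 72 h with compound at 5 or 9 concentrations in 384-well plates. Viability, read as CellTiter-Blue fluorescence at 560/590 nm, was normalised per plate to 0.1 % DMSO and a positive kill control.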

HCC1937 [2] = assay: normalised viability (% of control), CellTiter-Blue; higher = more viable cells (about 100 = DMSO control)
Method in brief: (§1)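 After 72 h on compound-loaded 384-well plates, breast cancer cell lines received 2.5 µl CellTiter-Blue reagent for 2 h at 37 °C. Fluorescence at 560/590 nm was scaled per plate so that vehicle was 100 and a positive kill control was 0. The value stands for normalised viability at a single listed concentration of the series.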

DU-4475 [3] = assay: as above
Method in brief: as §1

HCC1143 [4] = assay: as above
Method in brief: as §1

MDA-MB-436 [5] = assay: as above
Method in brief: as §1

BT-474 [6] = assay: as above
Method in brief: as §1

MDA-MB-453 [7] = assay: as above
Method in brief: as §1

HCC1599 [8] = assay: as above
Method in brief: as §1

Hs578T [9] = assay: as above
Method in brief: as §1

HCC1937 [10] = assay: normalised viability (% of control), CellTiter-Blue; higher = more viable cells (about 100 = DMSO control); remark: listed apart in the source
Procedure: (§2)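 DSRT, CellTiter-Blue viability, 72 h incubation. Signal is normalised to DMSO and benzethonium chloride controls. Value is the normalised response at dose 3.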

MDA-MB-231 = assay: as above
Procedure: as §2

CAL-120 = assay: as above
Procedure: as §2

BT-549 = assay: as above
Procedure: as §2

CAL-85-1 = assay: as above
Procedure: as §2

SK-BR-3 = assay: as above
Procedure: as §2

DU-4475 [11] = assay: as above; remark: listed apart in the source
Procedure: as §2

HCC1143 [12] = assay: as above; remark: listed apart in the source
Procedure: as §2

MDA-MB-436 [13] = assay: as above; remark: listed apart in the source
Procedure: as §2

CAL-51 = assay: as above
Procedure: as §2

BT-474 [14] = assay: as above; remark: listed apart in the source
Procedure: as §2

MDA-MB-453 [15] = assay: as above; remark: listed apart in the source
Procedure: as §2

MFM-223 = assay: as above
Procedure: as §2

CAL-148 = assay: as above
Procedure: as §2

HCC1599 [16] = assay: as above; remark: listed apart in the source
Procedure: as §2

Hs578T [17] = assay: as above; remark: listed apart in the source
Procedure: as §2

MDA-MB-468 = assay: as above
Procedure: as §2

HDQ-P1 = assay: as above
Procedure: as §2

Which drug sensitivity score (MDA-MB-453 [1]) does the source give for `CCNC(=O)c1noc(-c2cc(C(C)C)c(O)cc2O)c1-c1ccc(CN2CCOCC2)cc1` [NVP-AUY922] here?
The drug sensitivity score was 20.8.

What about the normalised viability (HCC1937 [2]; 1 nM) of the same compound?
The normalised viability was 58.5%.

What about the normalised viability (HCC1937 [2]; 100 nM) of the same compound?
Its normalised viability is 24.7%.

What about the normalised viability (HCC1937 [2]; 1000 nM) of the same compound?
Its normalised viability is 30.7%.

And the normalised viability (DU-4475 [3]; 0.3 nM)?
The normalised viability was 114%.

What about the normalised viability (DU-4475 [3]; 3 nM) of the same compound?
The normalised viability was 109%.

And the normalised viability (DU-4475 [3]; 10 nM)?
Its normalised viability is 87.6%.

And the normalised viability (HCC1143 [4]; 1 nM)?
The normalised viability was 119%.

What about the normalised viability (HCC1143 [4]; 100 nM) of the same compound?
Its normalised viability is 45%.

What about the normalised viability (HCC1143 [4]; 1000 nM) of the same compound?
Its normalised viability is 47.7%.

And the normalised viability (MDA-MB-436 [5]; 1 nM)?
The normalised viability was 111%.

What about the normalised viability (MDA-MB-436 [5]; 100 nM) of the same compound?
The normalised viability was 11.2%.

What about the normalised viability (MDA-MB-436 [5]; 1000 nM) of the same compound?
The normalised viability was 19.9%.

What about the normalised viability (BT-474 [6]; 1 nM) of the same compound?
The normalised viability was 102%.

And the normalised viability (BT-474 [6]; 100 nM)?
The normalised viability was 27.7%.

What about the normalised viability (BT-474 [6]; 1000 nM) of the same compound?
Its normalised viability is 22.3%.

And the normalised viability (MDA-MB-453 [7]; 0.3 nM)?
The normalised viability was 124%.

What about the normalised viability (MDA-MB-453 [7]; 3 nM) of the same compound?
Its normalised viability is 98%.

What about the normalised viability (MDA-MB-453 [7]; 10 nM) of the same compound?
Its normalised viability is 83.2%.

What about the normalised viability (HCC1599 [8]; 1 nM) of the same compound?
Its normalised viability is 101%.

And the normalised viability (HCC1599 [8]; 100 nM)?
Its normalised viability is 43.4%.

And the normalised viability (HCC1599 [8]; 1000 nM)?
Its normalised viability is 41.2%.

And the normalised viability (Hs578T [9]; 1 nM)?
Its normalised viability is 110%.

What about the normalised viability (Hs578T [9]; 100 nM) of the same compound?
Its normalised viability is 44.1%.

What about the normalised viability (Hs578T [9]; 1000 nM) of the same compound?
The normalised viability was 37.2%.

And the normalised viability (HCC1937 [10]; 10 nM)?
Its normalised viability is 37.8%.

What about the normalised viability (MDA-MB-231; 10 nM) of the same compound?
The normalised viability was 56.5%.

What about the normalised viability (CAL-120; 10 nM) of the same compound?
Its normalised viability is 46.6%.

And the normalised viability (BT-549; 10 nM)?
The normalised viability was 42.2%.

And the normalised viability (CAL-85-1; 1 nM)?
Its normalised viability is 96%.

And the normalised viability (SK-BR-3; 10 nM)?
The normalised viability was 34.9%.

What about the normalised viability (DU-4475 [11]; 1 nM) of the same compound?
Its normalised viability is 115%.

And the normalised viability (HCC1143 [12]; 10 nM)?
The normalised viability was 100%.

What about the normalised viability (MDA-MB-436 [13]; 10 nM) of the same compound?
The normalised viability was 58.5%.

And the normalised viability (CAL-51; 1 nM)?
Its normalised viability is 102%.

And the normalised viability (BT-474 [14]; 10 nM)?
The normalised viability was 86.1%.

And the normalised viability (MDA-MB-453 [15]; 1 nM)?
The normalised viability was 119%.

And the normalised viability (MFM-223; 10 nM)?
The normalised viability was 41.1%.

What about the normalised viability (CAL-148; 1 nM) of the same compound?
Its normalised viability is 103%.

And the normalised viability (HCC1599 [16]; 10 nM)?
The normalised viability was 112%.

What about the normalised viability (Hs578T [17]; 10 nM) of the same compound?
The normalised viability was 37.3%.

And the normalised viability (MDA-MB-468; 10 nM)?
Its normalised viability is 51.6%.

And the normalised viability (HDQ-P1; 1 nM)?
Its normalised viability is 132%.

With `CC1(C)CCC(c2ccc(Cl)cc2)=C(CN2CCN(c3ccc(C(=O)NS(=O)(=O)c4ccc(N[C@H](CCN5CCOCC5)CSc5ccccc5)c(S(=O)(=O)C(F)(F)F)c4)cc3)CC2)C1` [Navitoclax] as the compound, how does the drug sensitivity score (MDA-MB-453 [1]) read?
Its drug sensitivity score is 0.

What about the normalised viability (HCC1937 [2]; 10 nM) of the same compound?
The normalised viability was 87.6%.

What about the normalised viability (HCC1937 [2]; 1000 nM) of the same compound?
The normalised viability was 85.8%.

What about the normalised viability (HCC1937 [2]; 10000 nM) of the same compound?
Its normalised viability is 85%.

And the normalised viability (DU-4475 [3]; 3 nM)?
Its normalised viability is 88.7%.

And the normalised viability (DU-4475 [3]; 30 nM)?
Its normalised viability is 72.9%.

What about the normalised viability (DU-4475 [3]; 100 nM) of the same compound?
Its normalised viability is 70.3%.

What about the normalised viability (HCC1143 [4]; 10 nM) of the same compound?
The normalised viability was 71.8%.

What about the normalised viability (HCC1143 [4]; 1000 nM) of the same compound?
The normalised viability was 78.1%.

And the normalised viability (HCC1143 [4]; 10000 nM)?
The normalised viability was 65.3%.

And the normalised viability (MDA-MB-436 [5]; 10 nM)?
The normalised viability was 76.2%.

And the normalised viability (MDA-MB-436 [5]; 1000 nM)?
Its normalised viability is 98.7%.

What about the normalised viability (MDA-MB-436 [5]; 10000 nM) of the same compound?
The normalised viability was 71.7%.

And the normalised viability (BT-474 [6]; 10 nM)?
Its normalised viability is 96.3%.

What about the normalised viability (BT-474 [6]; 1000 nM) of the same compound?
The normalised viability was 95.2%.

And the normalised viability (BT-474 [6]; 10000 nM)?
The normalised viability was 63%.

What about the normalised viability (MDA-MB-453 [7]; 3 nM) of the same compound?
Its normalised viability is 104%.

What about the normalised viability (MDA-MB-453 [7]; 30 nM) of the same compound?
The normalised viability was 88.5%.

What about the normalised viability (MDA-MB-453 [7]; 100 nM) of the same compound?
The normalised viability was 74.9%.

And the normalised viability (HCC1599 [8]; 10 nM)?
Its normalised viability is 94.5%.

What about the normalised viability (HCC1599 [8]; 1000 nM) of the same compound?
The normalised viability was 62.2%.

And the normalised viability (HCC1599 [8]; 10000 nM)?
Its normalised viability is 74.7%.

What about the normalised viability (Hs578T [9]; 10 nM) of the same compound?
The normalised viability was 91.8%.

What about the normalised viability (Hs578T [9]; 1000 nM) of the same compound?
The normalised viability was 92.2%.

And the normalised viability (Hs578T [9]; 10000 nM)?
Its normalised viability is 88.8%.

What about the normalised viability (HCC1937 [10]; 100 nM) of the same compound?
The normalised viability was 96.3%.

And the normalised viability (MDA-MB-231; 100 nM)?
Its normalised viability is 71.9%.

And the normalised viability (CAL-120; 100 nM)?
The normalised viability was 61.3%.

And the normalised viability (BT-549; 100 nM)?
The normalised viability was 97.2%.

What about the normalised viability (CAL-85-1; 10 nM) of the same compound?
The normalised viability was 88.2%.

What about the normalised viability (SK-BR-3; 100 nM) of the same compound?
The normalised viability was 58.8%.

And the normalised viability (DU-4475 [11]; 10 nM)?
Its normalised viability is 86.9%.

And the normalised viability (HCC1143 [12]; 100 nM)?
The normalised viability was 75.3%.

What about the normalised viability (MDA-MB-436 [13]; 100 nM) of the same compound?
Its normalised viability is 89.2%.

And the normalised viability (CAL-51; 10 nM)?
The normalised viability was 105%.

And the normalised viability (BT-474 [14]; 100 nM)?
Its normalised viability is 97.3%.

And the normalised viability (MDA-MB-453 [15]; 10 nM)?
The normalised viability was 84.3%.

What about the normalised viability (MFM-223; 100 nM) of the same compound?
The normalised viability was 75.5%.

And the normalised viability (CAL-148; 10 nM)?
Its normalised viability is 87%.

What about the normalised viability (HCC1599 [16]; 100 nM) of the same compound?
The normalised viability was 93.5%.

What about the normalised viability (Hs578T [17]; 100 nM) of the same compound?
Its normalised viability is 78.2%.

And the normalised viability (MDA-MB-468; 100 nM)?
The normalised viability was 84.2%.

What about the normalised viability (HDQ-P1; 10 nM) of the same compound?
The normalised viability was 87.4%.
